Target: T1, IRAK1 (Homo sapiens, UniProt P51617)
T1 construct: active recombinant IRAK1 enzyme
Assay: SPR ([…] model); supported by KINOMEscan active-site competition binding and CETSA in A2780 cells

T1 sequence (P51617 whole entry): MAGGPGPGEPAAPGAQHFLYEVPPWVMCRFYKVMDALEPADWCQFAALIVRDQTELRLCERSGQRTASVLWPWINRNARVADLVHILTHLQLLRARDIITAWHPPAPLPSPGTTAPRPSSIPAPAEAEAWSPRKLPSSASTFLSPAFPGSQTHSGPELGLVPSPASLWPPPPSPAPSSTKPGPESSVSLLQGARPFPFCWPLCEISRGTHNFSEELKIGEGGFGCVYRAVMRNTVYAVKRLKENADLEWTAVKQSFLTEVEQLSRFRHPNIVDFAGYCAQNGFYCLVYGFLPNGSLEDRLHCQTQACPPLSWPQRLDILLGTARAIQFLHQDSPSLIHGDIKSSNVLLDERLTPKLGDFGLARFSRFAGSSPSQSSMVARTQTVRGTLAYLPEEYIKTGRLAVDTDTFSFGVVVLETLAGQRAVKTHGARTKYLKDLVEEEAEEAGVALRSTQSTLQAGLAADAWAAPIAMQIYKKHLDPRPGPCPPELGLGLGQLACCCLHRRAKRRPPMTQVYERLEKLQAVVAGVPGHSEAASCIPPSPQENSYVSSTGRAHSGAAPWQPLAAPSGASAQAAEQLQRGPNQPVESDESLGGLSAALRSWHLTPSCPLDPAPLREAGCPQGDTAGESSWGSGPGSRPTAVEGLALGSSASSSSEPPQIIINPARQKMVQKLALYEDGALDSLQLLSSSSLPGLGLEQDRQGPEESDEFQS

Kd: 1760 nM
SMILES: O=C(NO)c1ccc2[nH]c(=O)c(CCCc3ccccc3)nc2c1 [TCS2210]

From paper PMC11127949, “Selective targeting of IRAK1 attenuates low molecular weight hyaluronic acid-induced stemness and non-canonical STAT3 activation in epithelial ovarian cancer” (Cell Death & Disease, 2024)
